Experimental data published in article PMC5382200, “Mapping and Identification of Antifungal Peptides in the Putative Antifungal Protein AfpB from the Filamentous Fungus Penicillium digitatum” (Frontiers in Microbiology, 2017).
Values after ≈ are worked out from the molar mass of the structure shown. “Also recorded” adds a separate entry of the source. Where two headings read alike, the source gives them in different places. Positions of bridges follow the written chain, without caps; N, C: chain ends. Residues, ends and D or L forms follow the SMILES beside them. No end group written: not given here.

Columns and labels:
recombinant proteinase K [1] = target: T1, recombinant proteinase K (Parengyodontium album, UniProt P06873); assay: Proteolytic digestion assay with RP-HPLC analysis; type: in vitro ADME; details: two replicates; for resistance to degradation by proteinase K (in words): peptide 5 μM in 10 mM MOPS pH 7, 30°C, 0, 1, 2 and 24 h
T1 construct: purchased Roche, Mannheim, Germany
T1 sequence (P06873 106-384): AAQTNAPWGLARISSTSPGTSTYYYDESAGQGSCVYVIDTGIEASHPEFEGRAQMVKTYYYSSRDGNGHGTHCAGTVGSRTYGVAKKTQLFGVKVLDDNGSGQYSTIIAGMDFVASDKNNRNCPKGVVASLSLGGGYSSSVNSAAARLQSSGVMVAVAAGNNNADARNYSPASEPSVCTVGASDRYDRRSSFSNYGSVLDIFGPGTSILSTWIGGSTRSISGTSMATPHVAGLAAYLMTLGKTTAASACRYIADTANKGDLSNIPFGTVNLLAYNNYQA
Procedure: (§1) The proteolytic digestion assays were performed as described ([Ferre et al., 2006]; [López-García et al., 2015]) with minor modifications. Peptides (5 μM) were dissolved in 10 mM MOPS pH 7 and digested with 5 μg/mL of recombinant proteinase K (2 U/mg; Roche, Mannheim, Germany) at 30°C. Aliquots were withdrawn from the reaction mixtures at 0, 1, 2, and 24 h of incubation and immediately heated at 80°C for 10 min to inactivate the enzyme. Two replicates were prepared for each treatment, and the experiments were repeated at least twice.
(§2) Analyses of peptide digests were conducted by RP-HPLC using a Waters system (Waters Corporation, Milford, MA, USA) equipped with a 1525 Binary HPLC pump, a 2996 Photodiode Array Detector, and a 717 plus Autosampler. A Symmetry C18 column (4.6 mm × 150 mm, 5 μm, Waters Corporation) kept at 40°C was operated at a flow rate of 1 mL/min. Peptides were eluted with a linear gradient of solvent B [acetonitrile with 0.1% trifluoroacetic acid (TFA)] in solvent A (water with 0.1% TFA) 0–40% in 20 min and detected at 214 nm.

proteinase K = test system: T2, proteinase K; assay: Proteolytic digestion assay with RP-HPLC analysis; type: in vitro ADME; details: recombinant proteinase K; proteinase K 5 μg/mL (2 U/mg), peptide 5 μM in 10 mM MOPS pH 7, 30°C, 24 h; RP-HPLC C18 peak area at 214 nm; two replicates; read-out: peptide left after 24 h of treatment
T2 construct: purchased Roche, Mannheim, Germany
Procedure: as §1, §2

P. digitatum CECT20796 = test system: P. digitatum CECT20796
Procedure: (§3) The fungal strains used in this study are P. digitatum CECT20796, P. chrysogenum Q176, Botrytis cinerea CECT2100, Fusarium oxysporum 4287, and Aspergillus niger CBS 120.49. Fungi were cultured on potato dextrose agar (Difco-BD Diagnostics, Sparks, MD, USA) plates for 7–10 days at 24°C with the exception of F. oxysporum, which was cultured on potato dextrose broth (PDB; Difco-BD Diagnostics) at 28°C for 4 days with shaking. Conidia (mitotic asexual spores) were collected, filtered, and adjusted to the appropriate concentration. For antibacterial assays, the Gram-negative bacterium Escherichia coli JM109 was grown in Luria-Bertani (LB) medium at 37°C with shaking.
(§4) Growth inhibition assays were performed in 96-well microtiter plates (Nunc, Roskilde, Denmark) in a total volume of 100 μL as described previously ([López-García et al., 2002]). […] All samples were prepared in triplicate. Plates were statically incubated for 72 h at the optimal temperature of each microorganism. Growth was determined by measuring the optical density (OD) at 600 nm (OD600) using a Multiskan Spectrum plate spectrophotometer (Thermo Electron Corporation, Vantaa, Finland), and the OD600 mean and SD were calculated. Dose–response curves were generated from measurements after 72 h for fungi, and 48 h for E. coli. These experiments were repeated at least twice.

B. cinerea CECT2100 = test system: B. cinerea CECT2100
Procedure: as §3, §4

A. niger CBS 120.49 = test system: A. niger CBS 120.49
Procedure: as §3, §4

P. chrysogenum Q176 = details: 72 h
Procedure: as §3, §4

mammalian cells = details: ref Marx et al., 2008; cited from earlier work
Source text: (§5) There is an urgent need to develop new antifungal molecules with properties and mechanisms of action different from existing ones ([Brown et al., 2012]; [Fisher et al., 2012]). […] A remarkable group of AMPs are the antifungal proteins (AFPs) of fungal origin. AFPs belong to the broad class of defensins and are p ...

[2] = ref Palicz et al., 2013; cited from earlier work
Source text: as §5

F. oxysporum 4287 = details: 4287, 72 h
Procedure: as §3, §4

recombinant proteinase K [3] = target: T1, recombinant proteinase K; details: control peptide; ref López-García et al., 2015; cited from earlier work
Procedure: To exclude the possibility that increased sensitivity to proteolytic degradation could be the reason for limited antifungal activity, we tested the in vitro stability of the peptides derived from AfpB by incubation with proteinase K at different times and RP-HPLC analysis of the resultant digests.

[4] = proteinase K 5 μg/mL, RP-HPLC peak area at 214 nm
[5] = B. cinerea CECT2100, 2.5 × 10^4 conidia/mL in 1/20 diluted PDB with 0.01% chloramphenicol, 72 h, OD600, triplicate

Compound | resistance to degradation by proteinase K (in words) (recombinant proteinase K [1]; [4]) | Minimum inhibitory concentration (MIC) (P. digitatum CECT20796; CECT20796, 72 h) | Minimum inhibitory concentration (MIC) (B. cinerea CECT2100; [5]) | Minimum inhibitory concentration (MIC) (A. niger CBS 120.49; CBS 120.49, 72 h) | Minimum inhibitory concentration (MIC) (P. chrysogenum Q176) | further results
CC(C)C[C@@H]1NC(=O)[C@H](CO)NC(=O)[C@@H](NC(=O)[C@H](CCC(N)=O)NC(=O)CN)CSSC[C@@H](C(=O)N[C@H](C(=O)O)[C@@H](C)O)NC(=O)[C@H]([C@@H](C)O)NC(=O)[C@H](CC(N)=O)NC(=O)[C@H](Cc2c[nH]cn2)NC(=O)[C@H](CCCCN)NC1=O [PAF109] (H-GQCSLKHNTCT-OH; disulfide 3-10) | remarkably resistant; also recorded: extremely stable |  |  |  |  | 
C[C@@H]1NC(=O)[C@H](C)NC(=O)[C@H](CO)NC(=O)CNC(=O)[C@@H](NC(=O)[C@@H](N)CC(N)=O)CSSC[C@@H](C(=O)N[C@@H](CCC(=O)O)C(=O)O)NC(=O)[C@H](Cc2c[nH]cn2)NC(=O)[C@H](Cc2c[nH]cn2)NC(=O)[C@H](CCCNC(=N)N)NC(=O)[C@H](CC(=O)O)NC(=O)[C@H](CO)NC(=O)[C@H](CCCCN)NC(=O)[C@H](C)NC(=O)[C@H](CCCNC(=N)N)NC(=O)[C@H](CCCCN)NC(=O)[C@H](CC(N)=O)NC1=O [PAF112] (H-NCGSAANKRAKSDRHHCE-OH; disulfide 2-17) |  | 64 µM (≈ 127 µg/mL) | 128 µM (≈ 254 µg/mL) | >128 µM | >128 µM | remaining at 24 h, 5 μM (proteinase K): ~20%
C[C@@H]1NC(=O)[C@H](CCCCN)NC(=O)[C@H](CCCCN)NC(=O)[C@H](CC(N)=O)NC(=O)[C@H](CC(=O)O)NC(=O)[C@H](Cc2ccccc2)NC(=O)[C@H](CCCCN)NC(=O)[C@@H]2CCCN2C(=O)[C@@H](NC(=O)[C@@H](N)CCCCN)CSSC[C@@H](C(=O)N[C@H](C(=O)O)[C@@H](C)O)NC(=O)[C@H](CCCCN)NC(=O)[C@H](CC(N)=O)NC(=O)[C@H](CC(N)=O)NC(=O)[C@H](CC(=O)O)NC(=O)[C@H](CCCCN)NC(=O)[C@H]([C@@H](C)O)NC1=O [PAF116] (H-KCPKFDNKKATKDNNKCT-OH; disulfide 2-17) |  | 32 µM (≈ 66.6 µg/mL) | 16 µM (≈ 33.3 µg/mL) |  |  | 
CC[C@H](C)[C@@H]1NC(=O)[C@H](C(C)C)NC(=O)[C@H](CC(N)=O)NC(=O)[C@H](CCCNC(=N)N)NC(=O)CNC(=O)CNC(=O)[C@H](CCCCN)NC(=O)[C@H](CC(C)C)NC(=O)[C@H](Cc2ccc(O)cc2)NC(=O)[C@H]([C@@H](C)O)NC(=O)[C@@H](NC(=O)[C@@H](NC(=O)[C@@H](N)CC(N)=O)[C@@H](C)O)CSSC[C@@H](C(=O)NCC(=O)O)NC(=O)[C@H](CC(N)=O)NC(=O)[C@H](C(C)C)NC1=O [PAF118] (H-NTCTYLKGGRNVIVNCG-OH; disulfide 3-16) |  | 64 µM (≈ 116 µg/mL) | 64 µM (≈ 116 µg/mL) | >128 µM | >128 µM | peptide left after 24 h of treatment (recombinant proteinase K [1]; proteinase K 5 μg/mL (2 U/mg), peptide 5 μM in 10 mM MOPS pH 7, 30°C, 24 h, RP-HPLC C18 peak area at 214 nm): around 20%; intact peptide after 1 and 2 h of treatment (recombinant proteinase K [1]; proteinase K 5 μg/mL, peptide 5 μM in 10 mM MOPS pH 7, 30°C, 1 and 2 h, RP-HPLC peak area at 214 nm): severe reduction
CC(C)[C@@H]1NC(=O)[C@H](CCCNC(=N)N)NC(=O)[C@H](CCCNC(=N)N)NC(=O)[C@H](Cc2c[nH]cn2)NC(=O)[C@H](Cc2c[nH]cn2)NC(=O)[C@H](CCC(=O)O)NC(=O)[C@H](CC(=O)O)NC(=O)[C@H](Cc2ccc(O)cc2)NC(=O)[C@H](CCC(=O)O)NC(=O)[C@@H](NC(=O)[C@@H](N)Cc2c[nH]cn2)CSSC[C@@H](C(=O)N[C@@H](CCC(N)=O)C(=O)O)NC(=O)[C@H](CC(=O)O)NC1=O [PAF119] (H-HCEYDEHHRRVDCQ-OH; disulfide 2-13) | remarkably resistant; also recorded: extremely stable |  |  |  |  | 
AKYTGKCTKSKNECKYKNDAGKDTFIKCPKFDNKKCTKDNNKCTVDTYNNAVDCD (disulfide 7-36, 14-43, 28-54) [PAF protein] |  |  |  |  |  | toxicity to mammalian cells in vitro (mammalian cells): non-toxic; toxicity in vivo [2]: non-toxic
NAGSAANKRAKSDRHHAE [PAF113] | high sensitivity |  | 128 µM |  |  | degradation after 1 h of treatment (recombinant proteinase K [1]; proteinase K 5 μg/mL, peptide 5 μM in 10 mM MOPS pH 7, 30°C, 1 h, RP-HPLC peak area at 214 nm): completely degraded; Minimum inhibitory concentration (MIC) (P. digitatum CECT20796; P. digitatum CECT20796, 2.5 × 10^4 conidia/mL in 1/20 diluted PDB with 0.01% chloramphenicol, 72 h, 24°C, OD600, triplicate, repeated at least twice, concentration that completely inhibited growth in all experiments): 64 µM; Minimum inhibitory concentration (MIC) (A. niger CBS 120.49; A. niger CBS 120.49, 2.5 × 10^4 conidia/mL in 1/20 diluted PDB with 0.01% chloramphenicol, 72 h, OD600, triplicate): >128 µM; Minimum inhibitory concentration (MIC) (P. chrysogenum Q176; P. chrysogenum Q176, 2.5 × 10^4 conidia/mL in 1/20 diluted PDB with 0.01% chloramphenicol, OD600, triplicate): >128 µM
RKKWFW [PAF26, reference compound] |  | 8 µM |  | 8 µM | 16 µM | Minimum inhibitory concentration (MIC) (F. oxysporum 4287): 16 µM; Minimum inhibitory concentration (MIC) (B. cinerea CECT2100; CECT2100, 72 h): 8 µM; resistance to protease degradation (recombinant proteinase K [3]): highly resistant
